The source of these data is patent publication US20100284992A1 (priority 2006, published 2010).

Where a SMILES comes first, the peptide text is derived from it. The star is where a group is joined. Cbz = O=C(OCc1ccccc1)*; CH2F = FC*

One assay deals with HUVEC. In kind it is cell-based, Homo sapiens.
For assay [1], the target named is Pseudomonas aeruginosa hemolytic phospholipase C PlcHR2, wild type (Pseudomonas aeruginosa, UniProt P06200). In kind it is biochemical.
Pseudomonas aeruginosa hemolytic phospholipase C PlcHR2, wild type, sequence (P06200 39-730 limits assumed): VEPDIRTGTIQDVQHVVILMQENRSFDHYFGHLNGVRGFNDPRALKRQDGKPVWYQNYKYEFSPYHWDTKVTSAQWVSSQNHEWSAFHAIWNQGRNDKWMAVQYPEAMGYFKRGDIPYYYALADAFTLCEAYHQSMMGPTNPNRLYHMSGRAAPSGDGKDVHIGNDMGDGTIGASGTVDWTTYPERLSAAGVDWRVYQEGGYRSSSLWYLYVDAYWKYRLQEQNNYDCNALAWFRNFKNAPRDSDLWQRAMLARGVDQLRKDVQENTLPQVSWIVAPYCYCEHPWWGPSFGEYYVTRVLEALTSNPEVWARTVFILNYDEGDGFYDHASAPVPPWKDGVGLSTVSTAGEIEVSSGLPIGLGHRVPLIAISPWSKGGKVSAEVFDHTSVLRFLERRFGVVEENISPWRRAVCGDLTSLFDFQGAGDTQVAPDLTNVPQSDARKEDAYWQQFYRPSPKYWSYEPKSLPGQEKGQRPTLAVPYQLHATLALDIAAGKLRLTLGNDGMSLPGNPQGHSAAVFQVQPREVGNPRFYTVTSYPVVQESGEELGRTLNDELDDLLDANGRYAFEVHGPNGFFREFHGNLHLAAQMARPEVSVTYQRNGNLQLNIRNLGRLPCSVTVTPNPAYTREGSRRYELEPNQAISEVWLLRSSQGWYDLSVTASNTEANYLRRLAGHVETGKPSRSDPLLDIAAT

With `COC(=O)C[C@H](NC(=O)[C@H](C)NC(=O)[C@@H](NC(=O)OCc1ccccc1)C(C)C)C(=O)CF` [Z-VAD-FMK] (Cbz-Val-Ala-Asp(OMe)-CH2F), the “reduction of PlcHR2-induced LDH release” value with HUVEC is recorded as “reduced the amount of LDH release”.
Take `C[N+](C)(C)CCOP(=O)([O-])Oc1ccc([N+](=O)[O-])cc1` [NPPC, ρ-nitrophenyl-phosphorylcholine]: in assay [1] (pH 7.2), the Km was 19 mM and the Vmax is 147 ± 6 µmol/min/mg. Also, the kcat in assay [1] (pH 7.2, 37° C.) came to 192 s⁻¹.
